Measurements: patent US11419333B2, “Compositions and methods for biofilm removal” (ChampionX USA Inc., priority 2018, dated 2022)

Test system: Pseudomonas aeruginosa
Assay: Biocide test of quats in combination with THPS (ACCUCOUNT ATP)
Format: cell-based
Settings: 400 ppm (active) quat with addition of 8% THPS, compared to untreated sample
Procedure: The ability of POLY SUGA quats to act as biocides was tested. […] Each quat was compared to an untreated sample as well as a sample treated with a nonpolymeric cationic quat used as a positive control. Each test contained Pseudomonas aeruginosa, grown to a final density of 1×E8 per mL of cells in 3% sodium chloride containing growth medium. 400 ppm (active) of each quat was added to the mix and incubated for 4 and 24 hrs. After this time, 10 ml aliquots of each sample were drawn for analysis.
Active microbial populations were estimated using the ACCUCOUNT method. ACCUCOUNT uses ATP concentrations measured using fluorescence to indirectly quantitate the number of active microbes in a given sample. It is assumed that each cell contains 1 fg of ATP. By correlating the detected fluorescence to a known concentration of standard-the number of bacterial cells/mL is estimated.
The ability of each quat to act together with a known biocide to reduce microbial populations was tested. […] THPS alone and a non-polymeric cationic quat+THPS were used as positive controls.

## tetrakis(hydroxymethyl)phosphonium sulfate [THPS]
4 Hrs.
  % reduction in bacteria: 89.75%
24 Hrs.
  % reduction in bacteria: 91.73%
